Source: US20170334899A1, “AMINO-SUBSTITUTED ISOTHIAZOLES” (Bayer Pharma Aktiengesellschaft, priority 2014, published 2017)

Key:
[1] = system: human cervical tumor cell line HeLa (ATCC CCL-2); experiment: SAC-Formation - Paclitaxel-Induced Assay; type: cell-based; conditions: Homo sapiens, HeLa, 24 h, HeLa cells, paclitaxel 0.05 μM, test range 0.005 μM-20 μM, read-out: IC50 [mol/l] SAC-Formation - Paclitaxel-Induced Assay
In short: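 Read-out is high-content imaging of anti-phospho-H3 Ser10 (mitosis) and Hoechst 33342 (DNA, cell number), with decreased mitotic fraction marking checkpoint breakthrough. Compounds (0.005–20 μM) and 0.05 μM paclitaxel co-added to overnight-plated HeLa for 24 h at 37° C; four-parameter Hill fit.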

[2] = system: human cervical tumor cell line HeLa (ATCC CCL-2); experiment: SAC-Formation - Nocodazole-Induced Assay; type: cell-based; conditions: Homo sapiens, HeLa, 24 h, HeLa cells, nocodazole 0.1 μg/ml together with test compound, decrease of mitotic cells (phospho-histone H3 Ser10)
In short: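 Loss of phospho-histone H3 Ser10-positive cells, counted against Hoechst-stained nuclei by high-content imaging, marked mitotic breakthrough. Compounds (0.005–20 μM, 0.5% DMSO) were co-dosed with 0.1 μg/ml nocodazole onto HeLa cells for 24 h at 37 °C. Curves were fitted with a four-parameter Hill equation.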

IC50 [1] | IC50 [2] | Structure (SMILES)
0.15 µM | 0.058 µM | CCN1CC[C@@H](Oc2ccc(NC(=O)c3c(C)nsc3Nc3cnc(C(F)(F)F)cn3)cn2)[C@H](F)C1 [Example 369, N-(6-{[(3R,4R)-1-ethyl-3-fluoropiperidin-4-yl]oxy}pyridin-3-yl)-3-methyl-5-{[5-(trifluoromethyl)pyrazin-2-yl]amino}-1,2-thiazole-4-carboxamide]
0.059 µM | 0.0023 µM | Cc1nsc(Nc2cnc(C(F)(F)F)cn2)c1C(=O)Nc1ccc(O[C@H]2CCN(CC(F)F)C[C@@H]2F)nc1 [Example 362]
0.037 µM | 0.0018 µM | Cc1nsc(Nc2cnc(C(F)(F)F)cn2)c1C(=O)Nc1ccc(OCC2CCCN(CCC(F)(F)F)C2)nc1 (stereo not shown) [Example 328, 3-methyl-5-{[5-(trifluoromethyl)pyrazin-2-yl]amino}-N-(6-{[1-(3,3,3-trifluoropropyl)piperidin-3-yl]methoxy}pyridin-3-yl)-1,2-thiazole-4-carboxamide]
0.032 µM | 0.062 µM | Cc1nsc(Nc2cnc(C(F)(F)F)cn2)c1C(=O)Nc1ccc(O[C@H]2CCN(CCC(F)(F)F)C2)nc1 [Example 384, 3-methyl-5-{[5-(trifluoromethyl)pyrazin-2-yl]amino}-N-(6-{[(3S)-1-(3,3,3-trifluoropropyl)pyrrolidin-3-yl]oxy}pyridin-3-yl)-1,2-thiazole-4-carboxamide]
0.025 µM | 0.0071 µM | Cc1nsc(Nc2cnc(C(F)(F)F)cn2)c1C(=O)Nc1ccc(OC2CCCN(CCC(F)(F)F)C2)nc1 (stereo not shown) [Example 332, 3-methyl-5-{[5-(trifluoromethyl)pyrazin-2-yl]amino}-N-(6-{[1-(3,3,3-trifluoropropyl)piperidin-3-yl]oxy}pyridin-3-yl)-1,2-thiazole-4-carboxamide]
0.096 µM | 0.034 µM | Cc1nsc(Nc2cnc(C(F)(F)F)cn2)c1C(=O)Nc1ccc(O[C@@H]2CCN(CC(F)F)C2)nc1 [Example 379, N-(6-{[(3R)-1-(2,2-difluoroethyl)pyrrolidin-3-yl]oxy}pyridin-3-yl)-3-methyl-5-{[5-(trifluoromethyl)pyrazin-2-yl]amino}-1,2-thiazole-4-carboxamide]
0.037 µM | 0.027 µM | Cc1nsc(Nc2cnc(C(F)(F)F)cn2)c1C(=O)Nc1ccc(O[C@@H]2CCN(CC(F)(F)F)C[C@H]2F)nc1 [Example 367, N-(6-{[(3R,4R)-3-fluoro-1-(2,2,2-trifluoroethyl)piperidin-4-yl]oxy}pyridin-3-yl)-3-methyl-5-{[5-(trifluoromethyl)pyrazin-2-yl]amino}-1,2-thiazole-4-carboxamide]
0.44 µM | 0.014 µM | CCN1CCC(COc2ccc(NC(=O)c3c(C)nsc3Nc3cnc(C(F)(F)F)cn3)cn2)C(F)(F)C1 (stereo not shown) [Example 393, N-{6-[(1-ethyl-3,3-difluoropiperidin-4-yl)methoxy]pyridin-3-yl}-3-methyl-5-{[5-(trifluoromethyl)pyrazin-2-yl]amino}-1,2-thiazole-4-carboxamide]
0.16 µM | 0.093 µM | Cc1nsc(Nc2cnc(C(F)(F)F)cn2)c1C(=O)Nc1ccc(O[C@H]2CCCN(CC(F)(F)F)C2)nc1 [Example 389, 3-methyl-N-(6-{[(3S)-1-(2,2,2-trifluoroethyl)piperidin-3-yl]oxy}pyridin-3-yl)-5-{[5-(trifluoromethyl)pyrazin-2-yl]amino}-1,2-thiazole-4-carboxamide]
0.025 µM | 0.023 µM | Cc1nsc(Nc2cnc(C(F)(F)F)cn2)c1C(=O)Nc1ccc(OC2CCCN(CC(F)F)C2)nc1 (stereo not shown) [Example 330, N-(6-{[1-(2,2-difluoroethyl)piperidin-3-yl]oxy}pyridin-3-yl)-3-methyl-5-{[5-(trifluoromethyl)pyrazin-2-yl]amino}-1,2-thiazole-4-carboxamide]

Second part, the molecule before the results:

Structure (SMILES) | IC50 [1] | IC50 [2]
Cc1nsc(Nc2cnc3ccccc3n2)c1C(=O)Nc1ccc(OC2CCCN(CC(F)F)C2)nc1 (stereo not shown) [Example 33, N-(6-{[1-(2,2-Difluoroethyl)piperidin-3-yl]oxy}pyridin-3-yl)-3-methyl-5-(quinoxalin-2-ylamino)-1,2-thiazole-4-carboxamide] | 0.074 µM | 1.4 µM
Cc1nsc(Nc2cnc(C(F)(F)F)cn2)c1C(=O)Nc1ccc(N2CCN(CC(F)(F)F)CC2)nc1 [Example 360, 3-methyl-N-{6-[4-(2,2,2-trifluoroethyl)piperazin-1-yl]pyridin-3-yl}-5-{[5-(trifluoromethyl)pyrazin-2-yl]amino}-1,2-thiazole-4-carboxamide] | 0.075 µM | 0.036 µM
Cc1nsc(Nc2cnc(C(F)(F)F)cn2)c1C(=O)Nc1ccc(C2CCN(CC(F)(F)F)CC2)nc1 [Example 358, 3-methyl-N-{6-[1-(2,2,2-trifluoroethyl)piperidin-4-yl]pyridin-3-yl}-5-{[5-(trifluoromethyl)pyrazin-2-yl]amino}-1,2-thiazole-4-carboxamide] | 0.068 µM | 0.03 µM
Cc1nsc(Nc2cnc(C(F)(F)F)cn2)c1C(=O)Nc1ccc(N2CCN(CC(F)F)CC2)nc1 [Example 359, N-{6-[4-(2,2-difluoroethyl)piperazin-1-yl]pyridin-3-yl}-3-methyl-5-{[5-(trifluoromethyl)pyrazin-2-yl]amino}-1,2-thiazole-4-carboxamide] | 0.11 µM | 0.029 µM
Cc1nsc(Nc2cnc(C(F)(F)F)cn2)c1C(=O)Nc1ccc(F)c(OC[C@H]2CCN(CC(F)F)C2)c1 [Example 397, N-(3-{[(3S)-1-(2,2-difluoroethyl)pyrrolidin-3-yl]methoxy}-4-fluorophenyl)-3-methyl-5-{[5-(trifluoromethyl)pyrazin-2-yl]amino}-1,2-thiazole-4-carboxamide] | 0.082 µM | 0.031 µM
Cc1nsc(Nc2cnc(C(F)(F)F)cn2)c1C(=O)Nc1ccc(OCCCN(C)CCF)nc1 [Example 352, N-(6-{3-[(2-fluoroethyl)(methyl)amino]propoxy}pyridin-3-yl)-3-methyl-5-{[5-(trifluoromethyl)pyrazin-2-yl]amino}-1,2-thiazole-4-carboxamide] | 0.52 µM | 0.47 µM
Cc1nsc(Nc2cnc(C(F)(F)F)cn2)c1C(=O)Nc1ccc(F)c(OCC2CCCN(CCC(F)(F)F)C2)c1 (stereo not shown) [Example 338, N-(4-fluoro-3-{[1-(3,3,3-trifluoropropyl)piperidin-3-yl]methoxy}phenyl)-3-methyl-5-{[5-(trifluoromethyl)pyrazin-2-yl]amino}-1,2-thiazole-4-carboxamide] | 0.079 µM | 0.027 µM
Cc1nsc(Nc2cnc(C(F)(F)F)cn2)c1C(=O)Nc1ccc(OCCN(C)CC(F)(F)F)nc1 [Example 350, 3-methyl-N-(6-{2-[methyl(2,2,2-trifluoroethyl)amino]ethoxy}pyridin-3-yl)-5-{[5-(trifluoromethyl)pyrazin-2-yl]amino}-1,2-thiazole-4-carboxamide] | 0.057 µM | 0.099 µM
Cc1nsc(Nc2cnc(C(F)(F)F)cn2)c1C(=O)Nc1ccc(F)c(OC[C@H]2CCN(CCC(F)(F)F)C2)c1 [Example 399, N-(4-fluoro-3-{[(3S)-1-(3,3,3-trifluoropropyl)pyrrolidin-3-yl]methoxy}phenyl)-3-methyl-5-{[5-(trifluoromethyl)pyrazin-2-yl]amino}-1,2-thiazole-4-carboxamide] | – | 0.029 µM
